Read-outs that look alike come from different tables or passages of the source.
Key:
[1] = tested on: M14 (amelanotic melanoma) cells; test: antiproliferation assay (72 h, CELLTITER 96), M14; format: cell-based, human; details: Homo sapiens
Experimental: (§1) All of the compounds shown in Table 3-Table 8 below were prepared synthetically as described in EXAMPLE I. The compounds were tested for their ability to inhibit the proliferation of human cancer cells in vitro as described in the following paragraph. Table 3-Table 8 list the IC50 values in the M14 and NCI-H460 human cancer cell lines. IC50 is defined as the concentration of compound necessary to achieve 50% of the maximum growth inhibition.
(§2) For the antiproliferation assay, NCI-H460 (large cell lung carcinoma) or M14 (amelanotic melanoma) cells were grown in RPMI-1640 with 10% FBS supplemented with L-glutamine and HEPES. Cells were seeded into 96-well plates at 5×10^2 to 5×10^4 cells/well and allowed to adhere overnight; the medium was then removed. A stock solution of test compound in DMSO was diluted in medium to generate a series of working solutions. Aliquots (100 μl) of the working solutions were then added to the appropriate test wells to expose cells to the final concentrations of compound in a total volume of 100 μl. Seven different concentrations were tested, with 2-5 wells per concentration. Camptothecin was used as a positive control; wells containing vehicle without compound were used as negative controls. Plates were kept for 72 h in a 37° C., 5% CO2 incubator. After incubation, viable cells were detected with the CELLTITER 96 AQueous Non-Radioactive Cell Proliferation Assay (Promega), and IC50 values were determined using GraphPad Prism 5 software.

[2] = tested on: NCI-H460 (large cell lung carcinoma) cells; test: antiproliferation assay (72 h, CELLTITER 96), NCI-H460; format: cell-based, human; details: Homo sapiens
Experimental: as §1, §2

[3] = NCI-H460, Table 5, read-out: NCI-H460 IC50
[4] = NCI-H460, Table 3, read-out: NCI-H460 IC50
[5] = NCI-H460, Table 7, read-out: NCI-H460 IC50
[6] = NCI-H460, stereoisomers of compound 4, Table 1, read-out: IC50 NCI-H460

Structure (SMILES)	IC50 ([1]; Table 3)	IC50 [2, 4]	other results
C=CCC1C[C@]2([C@@H](C)Cc3cc(F)c(NC)cc3F)OCOC2=CC1=O (mixture of isomers) [Compound 45, 6-allyl-7a-(1-(2,5-difluoro-4-(methylamino)phenyl)propan-2-yl)-7,7a-dihydrobenzo[d][1,3]dioxol-5(6H)-one]	–	–	IC50 ([1]; Table 5): 98 nM; IC50 [2, 3]: 340 nM
C=CC[C@H]1C[C@]2([C@H](C)Cc3ccc(OC)cc3F)OCOC2=CC1=O (relative stereo) [Compound 3, 6-allyl-7a-(1-(2-fluoro-4-methoxyphenyl)propan-2-yl)-7,7a-dihydrobenzo[d][1,3]dioxol-5(6H)-one]	13 nM	77 nM	–
C=CC[C@H]1C[C@]2([C@H](C)Cc3cc(F)c(NC)cc3F)OCOC2=CC1=O (relative stereo) [Compound 44, 6-allyl-7a-(1-(2,5-difluoro-4-(methylamino)phenyl)propan-2-yl)-7,7a-dihydrobenzo[d][1,3]dioxol-5(6H)-one]	–	–	IC50 ([1]; Table 5): 16 nM; IC50 [2, 3]: 68 nM
COc1ccc(C[C@H](C)[C@]23C[C@H](CC4CC4)C(=O)C=C2OCO3)c(F)c1 (relative stereo) [Compound 63, (7aR)-6-(cyclopropylmethyl)-7a-((S)-1-(2-fluoro-4-methoxyphenyl)propan-2-yl)-7,7a-dihydrobenzo[d][1,3]dioxol-5(6H)-one]	–	–	IC50 ([1]; Table 7): > 20000 nM; IC50 [2, 5]: 1700 nM
COc1ccc(C[C@H](C)[C@]23C[C@H](C/C=C/c4ccccc4)C(=O)C=C2OCO3)cc1OC (relative stereo) [Compound 71, (6S,7aR)-6-cinnamyl-7a-((S)-1-(3,4-dimethoxyphenyl)propan-2-yl)-7,7a-dihydrobenzo[d][1,3]dioxol-5(6H)-one]	–	–	IC50 ([1]; Table 7): 6400 nM; IC50 [2, 5]: 14000 nM
C=CC[C@H]1C[C@]2(C(C)Cc3cc(NC(C)=O)c(OC)cc3F)OCOC2=CC1=O (stereo in doubt) [Compound 19, N-(5-((S)-2-((3aR,5S)-5-allyl-6-oxo-3a,4,5,6-tetrahydrobenzo[d][1,3]dioxol-3a-yl)propyl)-4-fluoro-2-methoxyphenyl)acetamide]	52 nM	71 nM	–
C=CC[C@H]1C[C@]2([C@@H](C)Cc3cc(O)c(OC)cc3F)OCOC2=CC1=O [Compound 5, (6S,7aR)-6-allyl-7a-((S)-1-(2-fluoro-5-hydroxy-4-methoxyphenyl)propan-2-yl)-7,7a-dihydrobenzo[d][1,3]dioxol-5(6H)-one]	9 nM	33 nM	–
C=CC[C@H]1C[C@]2([C@@H](C)Cc3cc(F)c(OC)cc3F)OCOC2=CC1=O [Compound 7, (6S,7aR)-6-allyl-7a-((S)-1-(2,5-difluoro-4-methoxyphenyl)propan-2-yl)-7,7a-dihydrobenzo[d][1,3]dioxol-5(6H)-one]	23 nM	59 nM	–
C=CC[C@H]1C[C@]2([C@@H](C)Cc3cc(C)c(OC)cc3F)OCOC2=CC1=O [Compound 8, (6S,7aR)-6-allyl-7a-((S)-1-(2-fluoro-4-methoxy-5-methylphenyl)propan-2-yl)-7,7a-dihydrobenzo[d][1,3]dioxol-5(6H)-one]	230 nM	650 nM	–
C=CC[C@H]1C[C@]2([C@H](C)Cc3cc(C(=O)OC)c(OC)cc3F)OCOC2=CC1=O [Compound 9, methyl 5-((R)-2-((3aR,5S)-5-allyl-6-oxo-3a,4,5,6-tetrahydrobenzo[d][1,3]dioxol-3a-yl)propyl)-4-fluoro-2-methoxybenzoate]	210 nM	260 nM	–
C=CC[C@H]1C[C@]2([C@@H](C)Cc3cc(C(=O)OC)c(OC)cc3F)OCOC2=CC1=O [Compound 10, methyl 5-((S)-2-((3aR,5S)-5-allyl-6-oxo-3a,4,5,6-tetrahydrobenzo[d][1,3]dioxol-3a-yl)propyl)-4-fluoro-2-methoxybenzoate]	> 20000 nM	2200 nM	–
C=CC[C@H]1C[C@]2(C(C)Cc3cc(C(N)=O)c(OC)cc3F)OCOC2=CC1=O (stereo partly drawn) [Compound 11, 5-(2-((3aR,5S)-5-allyl-6-oxo-3a,4,5,6-tetrahydrobenzo[d][1,3]dioxol-3a-yl)propyl)-4-fluoro-2-methoxybenzamide]	4 nM	330 nM	–
C=CC[C@H]1C[C@]2([C@@H](C)Cc3cc(C(=O)NC)c(OC)cc3F)OCOC2=CC1=O [Compound 12, 5-((S)-2-((3aR,5S)-5-allyl-6-oxo-3a,4,5,6-tetrahydrobenzo[d][1,3]dioxol-3a-yl)propyl)-4-fluoro-2-methoxy-N-methylbenzamide]	240 nM	520 nM	–
C=CC[C@H]1C[C@]2([C@H](C)Cc3cc(C(=O)NC)c(OC)cc3F)OCOC2=CC1=O [Compound 13, 5-((R)-2-((3aR,5S)-5-allyl-6-oxo-3a,4,5,6-tetrahydrobenzo[d][1,3]dioxol-3a-yl)propyl)-4-fluoro-2-methoxy-N-methylbenzamide]	190 nM	370 nM	–
C=CC[C@H]1C[C@]2([C@@H](C)Cc3cc(C#N)c(OC)cc3F)OCOC2=CC1=O [Compound 14, 5-((S)-2-((3aR,5S)-5-allyl-6-oxo-3a,4,5,6-tetrahydrobenzo[d][1,3]dioxol-3a-yl)propyl)-4-fluoro-2-methoxybenzonitrile]	37 nM	150 nM	–
C=CC[C@H]1C[C@]2([C@@H](C)Cc3cc(OC)c(OC)cc3F)OCOC2=CC1=O [Compound 15, (6S,7aR)-6-allyl-7a-((S)-1-(2-fluoro-4,5-dimethoxyphenyl)propan-2-yl)-7,7a-dihydrobenzo[d][1,3]dioxol-5(6H)-one]	14 nM	120 nM	–
C=CCOc1cc(C[C@@H](C)[C@]23C[C@H](CC=C)C(=O)C=C2OCO3)c(F)cc1OC [Compound 16, (6S,7aR)-6-allyl-7a-((R)-1-(5-(allyloxy)-2-fluoro-4-methoxyphenyl)propan-2-yl)-7,7a-dihydrobenzo[d][1,3]dioxol-5(6H)-one]	520 nM	620 nM	–
C=CC[C@H]1C[C@]2([C@@H](C)Cc3cc(N)c(OC)cc3F)OCOC2=CC1=O [Compound 17, (6S,7aR)-6-allyl-7a-((S)-1-(5-amino-2-fluoro-4-methoxyphenyl)propan-2-yl)-7,7a-dihydrobenzo[d][1,3]dioxol-5(6H)-one]	29 nM	160 nM	–
C=CC[C@H]1C[C@]2([C@@H](C)Cc3cc(NC(C)=O)c(OC)cc3F)OCOC2=CC1=O [Compound 18, N-(5-((S)-2-((3aR,5S)-5-allyl-6-oxo-3a,4,5,6-tetrahydrobenzo[d][1,3]dioxol-3a-yl)propyl)-4-fluoro-2-methoxyphenyl)acetamide]	160 nM	410 nM	–
C=CC[C@H]1C[C@]2([C@@H](C)Cc3ccc(OC)c(OC)c3F)OCOC2=CC1=O [Compound 20, (6S,7aR)-6-allyl-7a-((S)-1-(2-fluoro-3,4-dimethoxyphenyl)propan-2-yl)-7,7a-dihydrobenzo[d][1,3]dioxol-5(6H)-one]	710 nM	–	–
C=CC[C@H]1C[C@]2([C@H](C)Cc3ccc(OC)c(OC)c3F)OCOC2=CC1=O [Compound 21, (6S,7aR)-6-allyl-7a-((R)-1-(2-fluoro-3,4-dimethoxyphenyl)propan-2-yl)-7,7a-dihydrobenzo[d][1,3]dioxol-5(6H)-one]	2800 nM	3000 nM	–
C=CC[C@@H]1C[C@]2([C@H](C)Cc3cc(O)c(OC)cc3F)OCOC2=CC1=O [SQ 1378]	–	–	IC50 [2, 6]: 1900 nM
C=CC[C@@H]1C[C@]2([C@@H](C)Cc3cc(O)c(OC)cc3F)OCOC2=CC1=O [SQ 1389]	–	–	IC50 [2, 6]: 2500 nM
